Data published in article PMC11172375, “Preclinical Evaluation of Biodistribution and Toxicity of [^211At]PSMA-5 in Mice and Primates for the Targeted Alpha Therapy against Prostate Cancer” (International Journal of Molecular Sciences, 2024).
“Also recorded” adds a separate entry of the source.

Key:
[1] = Hematological examination in mice; assay type: in vivo, ICR mice; conditions: for %Lymph / Hb / Ht / Platelet / RBC / WBC: mice
Description: (§1) [^211At]PSMA-5 was administered intravenously to 25 mice, and its biodistribution was evaluated. For the toxicity study, three doses of [^211At]PSMA-5 (5, 12, and 35 MBq/kg, single dose) or saline were intravenously administered to 10 mice/group for the main evaluation point on day 1, and 5-mice/group for recovery evaluation on day 14, adhering to the ICH M3 (R2) guidelines. The dosage was determined based on our previous study using [^211At]NaAt. The monkeys were monitored for 24 h post-administration of [^211At]PSMA-5 (9 MBq/kg).
(§2) A blood cell counter was used for the measurements (CB-1010; ARKRAY, Inc., Kyoto, Japan). Red blood cell count (RBC), hemoglobin concentration (Hb), hematocrit (Ht), white blood cell count (WBC), platelet count (platelet), lymphocytes (%Lymph), monocytes (%Mon), and granulocytes (%Gra) were calculated. Plasma was analyzed using a dry clinical chemistry analyzer (Spotchem D-00 QR D-02; ARKRAY, Inc., Kyoto, Japan). The levels of aspartate aminotransferase (AST), alanine aminotransferase (ALT), gamma-glutamyl transpeptidase (γ-GTP), lactate dehydrogenase (LDH), alkaline phosphatase (ALP), creatine kinase (CK), amylase (AMY), total bilirubin (TBIL), creatinine (CRE), urea nitrogen (BUN), glucose (GLU), total protein (TP), albumin (ALB), total cholesterol (TCHO), triglyceride (TG), and electrolytes (Na, K, and Cl) were measured.

[2] = Biodistribution in cynomolgus monkey (planar/SPECT imaging, 24 h autopsy); assay type: in vivo; conditions: 9 MBq/kg i.v.
Description: as §1
Monkeys were anesthetized with intramuscular administration of ketamine (10 mg/kg) and xylazine (0.5 mg/kg) with isoflurane inhalation anesthesia. Planar and Single Photon Emission Computed Tomography (SPECT) imaging was performed in monkeys using a γ-camera system (E-cam, Siemens, Erlangen, Germany) immediately after administration to 1 h and at 3 and 24 h post-administration of [^211At]PSMA-5 (9 MBq/kg), targeting the X-rays emitted from the daughter nuclide ^211Po (energy window: 79 keV ± 20%). […]
Urine and feces samples were collected at each time point. […] Organ weights and radiation doses were measured using a γ-counter (model: 2480Wizard2, PerkinElmer) and γ-camera system (E-cam) by appropriate cross-calibration.

[3] = Extended single-dose toxicity study in mice: general condition, body weight, organ weight; assay type: in vivo, ICR mice; conditions: for testes organ weight: day 14
Description: This study was conducted in compliance with the Animal Experiment Regulations and the Act on Welfare and Management of Animals of the Osaka University Graduate School of Medicine (approval numbers: 04-070 and 04-094). Normal male ICR mice (n = 85, 5–6 weeks old, body weight: 29.4 ± 2.3 g) and cynomolgus monkey (n = 2, body weight: 2.10 and 2.05 kg) were purchased from Japan SLC Inc. (Hamamatsu, Japan) and Hamri Co., Ltd. (Ibaraki, Japan), respectively. The animals were housed under a 12 h light/12 h dark cycle. General condition and body weight were monitored.
as §1
The brain, salivary gland, thyroid, heart, lungs, liver, kidney, adrenal gland, pancreas, spleen, thymus, stomach, small intestine, large intestine, bladder, prostate, and testes were collected on days 1 or 14 in mice and at 24 h in monkeys. Additionally, the pituitary gland, tongue, trachea, esophagus, mesenteric lymph nodes, epididymis, seminal vesicles, skin, mammary glands, spinal cord, bone, bone marrow (femur), eyeball, and optic nerve were collected from the mice. After fixation, paraffin sections were prepared and stained with hematoxylin and eosin (HE). All the specimens were evaluated by an expert in toxic pathology using an integrated fluorescence microscope (BZ-X810; Keyence Corporation. Osaka, Japan). In mice, the brain, salivary glands, heart, lungs, liver, gallbladder, spleen, kidneys, and testes were weighed according to ICH S4 guideline.

[4] = Hematological examination in monkeys; assay type: in vivo, cynomolgus monkeys; conditions: for %Lymph / Hb / Ht / Platelet / RBC / WBC: monkeys, 9 MBq/kg i.v.
Description: as §1
Monkeys were anesthetized with intramuscular administration of ketamine (10 mg/kg) and xylazine (0.5 mg/kg) with isoflurane inhalation anesthesia. Planar and Single Photon Emission Computed Tomography (SPECT) imaging was performed in monkeys using a γ-camera system (E-cam, Siemens, Erlangen, Germany) immediately after administration to 1 h and at 3 and 24 h post-administration of [^211At]PSMA-5 (9 MBq/kg), targeting the X-rays emitted from the daughter nuclide ^211Po (energy window: 79 keV ± 20%). Subsequent image analysis was performed by setting the regions of interest using Osirix MD software (Version 13, Pixmeo SARL, Bernex, Switzerland) and PMOD software (Version 3.903, PMOD Technologies, Fällanden, Switzerland). Blood samples were obtained pre-administration and at 1, 3, and 24 h post-administration, followed by euthanasia via bloodletting at 24 h.
as §2

O=C(O)CC[C@H](NC(=O)N[C@@H](CCCCNC(=O)[C@@H](Cc1ccc2ccccc2c1)NC(=O)c1ccc(CNC(=O)[C@@H](CCC(=O)O)NC(=O)[C@@H](CCC(=O)O)NC(=O)Cc2ccc([211At])cc2)cc1)C(=O)O)C(=O)O [[^211At]PSMA-5]
blood examination versus control group ([1]; mice, 5, 12 and 35 MBq/kg, day 1 or day 14): no significant difference
%Lymph ([1]; 5 MBq/kg i.v., day 1): 66.3 ± 15.8%
Hb ([1]; 5 MBq/kg i.v., day 1): 12.9 ± 0.4 g/dL
Ht ([1]; 5 MBq/kg i.v., day 1): 42.5 ± 1.4%
Platelet ([1]; 5 MBq/kg i.v., day 1): 976 ± 524 10^3 cell/µL
RBC ([1]; 5 MBq/kg i.v., day 1): 7.8 ± 0.3 10^6 cell/µL
WBC ([1]; 5 MBq/kg i.v., day 1): 6.3 ± 4.1 10^3 cell/µL
%Lymph ([1]; 5 MBq/kg i.v., day 14): 70 ± 8.8%
Hb ([1]; 5 MBq/kg i.v., day 14): 14.4 ± 0.4 g/dL
Ht ([1]; 5 MBq/kg i.v., day 14): 45.4 ± 1%
Platelet ([1]; 5 MBq/kg i.v., day 14): 1120 ± 555 10^3 cell/µL
RBC ([1]; 5 MBq/kg i.v., day 14): 8.7 ± 0.2 10^6 cell/µL
WBC ([1]; 5 MBq/kg i.v., day 14): 6.9 ± 3.3 10^3 cell/µL
%Lymph ([1]; 12 MBq/kg i.v., day 1): 62.6 ± 14.2%
Hb ([1]; 12 MBq/kg i.v., day 1): 13.0 ± 0.8 g/dL
Ht ([1]; 12 MBq/kg i.v., day 1): 42.6 ± 2.3%
Platelet ([1]; 12 MBq/kg i.v., day 1): 1329 ± 845 10^3 cell/µL
RBC ([1]; 12 MBq/kg i.v., day 1): 8.0 ± 0.5 10^6 cell/µL
WBC ([1]; 12 MBq/kg i.v., day 1): 8.3 ± 4.9 10^3 cell/µL
%Lymph ([1]; 12 MBq/kg i.v., day 14): 59.9 ± 12.1%
Hb ([1]; 12 MBq/kg i.v., day 14): 13.8 ± 0.9 g/dL
Ht ([1]; 12 MBq/kg i.v., day 14): 43.9 ± 3%
Platelet ([1]; 12 MBq/kg i.v., day 14): 922 ± 608 10^3 cell/µL
RBC ([1]; 12 MBq/kg i.v., day 14): 8.3 ± 0.6 10^6 cell/µL
WBC ([1]; 12 MBq/kg i.v., day 14): 6.9 ± 1.9 10^3 cell/µL
%Lymph ([1]; 35 MBq/kg i.v., day 1): 53.5 ± 16.9%
Hb ([1]; 35 MBq/kg i.v., day 1): 12.8 ± 0.7 g/dL
Ht ([1]; 35 MBq/kg i.v., day 1): 42.3 ± 2%
Platelet ([1]; 35 MBq/kg i.v., day 1): 952 ± 444 10^3 cell/µL
RBC ([1]; 35 MBq/kg i.v., day 1): 7.9 ± 0.3 10^6 cell/µL
WBC ([1]; 35 MBq/kg i.v., day 1): 8.0 ± 5.2 10^3 cell/µL
%Lymph ([1]; 35 MBq/kg i.v., day 14): 53.9 ± 6.4%
Hb ([1]; 35 MBq/kg i.v., day 14): 13.6 ± 0.7 g/dL
Ht ([1]; 35 MBq/kg i.v., day 14): 43.1 ± 2.4%
Platelet ([1]; 35 MBq/kg i.v., day 14): 1331 ± 1037 10^3 cell/µL
RBC ([1]; 35 MBq/kg i.v., day 14): 8.4 ± 0.4 10^6 cell/µL
WBC ([1]; 35 MBq/kg i.v., day 14): 5.4 ± 2.8 10^3 cell/µL
cumulative fecal excretion [2]: 11.27 %ID
cumulative urinary excretion [2]: 0.46 %ID
STD10 in human after body surface area conversion ([3]; converted from mice): > 2.8 MBq/kg
body weight compared to the control ([3]; mice, 12 MBq/kg, day 5): significant decrease in body weight
testes organ weight ([3]; mice, 12 MBq/kg): 0.18 ± 0.02 g
body weight compared to the control ([3]; mice, 35 MBq/kg, day 10): significant decrease in body weight
testes organ weight ([3]; mice, 35 MBq/kg): 0.17 ± 0.003 g
severe toxicity or death ([3]; mice, highest dose 35 MBq/kg, 14-day observation): No severe toxicity or death was observed; also recorded: no severe toxicity
STD10 (dose that causes severe toxicity in 10% of test animals) ([3]; mice, single i.v. dose): exceed 35 MBq/kg
leukopenia (mainly lymphopenia) ([4]; cynomolgus monkeys, 9 MBq/kg, 24 h after administration): mild but significant leukopenia
%Lymph ([4]; 1 h): 44.0 ± 16.0%
Hb ([4]; 1 h): 10.3 ± 1.4 g/dL
Ht ([4]; 1 h): 32.9 ± 4.8%
Platelet ([4]; 1 h): 263.7 ± 33.0 10^3 cell/µL
RBC ([4]; 1 h): 4.30 ± 0.30 10^6 cell/µL
WBC ([4]; 1 h): 10.1 ± 0.7 10^3 cell/µL
%Lymph ([4]; 3 h): 52.0 ± 4.5%
Hb ([4]; 3 h): 11.2 ± 0.8 g/dL
Ht ([4]; 3 h): 35.4 ± 2.5%
Platelet ([4]; 3 h): 306.8 ± 41.2 10^3 cell/µL
RBC ([4]; 3 h): 4.70 ± 0.00 10^6 cell/µL
WBC ([4]; 3 h): 6.7 ± 1.4 10^3 cell/µL
%Lymph ([4]; 24 h): 23.7 ± 1.1%
Hb ([4]; 24 h): 9.9 ± 0.5 g/dL
Ht ([4]; 24 h): 31.8 ± 1.5%
Platelet ([4]; 24 h): 269.7 ± 60.8 10^3 cell/µL
RBC ([4]; 24 h): 4.20 ± 0.10 10^6 cell/µL
WBC ([4]; 24 h): 5.3 ± 0.8 10^3 cell/µL
